One assay concerns the target Endothelial lipase (EL) (Homo sapiens (Human), UniProt Q9Y5X9). The experiment in a line: EL assay: endothelial lipase activity with fluorescent substrate A10070 in DMPG vesicles. The class given is biochemical. A digest of the protocol:
(§1)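 Vesicles prepared: A10070 dried with DMPG, resuspended in HEPES pH 8.0/NaCl/EDTA, sonicated on ice. Enzyme incubated with compound 30 min at 37° C. Reaction started with 1:10 diluted vesicles. Fluorescence (490/530 nm) followed 60 min; slope from 300–900 secs gives rate.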

In another assay the target is hepatic lipase (HL) (Homo sapiens (Human), UniProt P11150). Description: HL assay: hepatic lipase activity with fluorescent substrate A10070 in DMPG vesicles. The class given is biochemical. Summed up:
as §1

Chain of Endothelial lipase (EL) (Q9Y5X9 21-500): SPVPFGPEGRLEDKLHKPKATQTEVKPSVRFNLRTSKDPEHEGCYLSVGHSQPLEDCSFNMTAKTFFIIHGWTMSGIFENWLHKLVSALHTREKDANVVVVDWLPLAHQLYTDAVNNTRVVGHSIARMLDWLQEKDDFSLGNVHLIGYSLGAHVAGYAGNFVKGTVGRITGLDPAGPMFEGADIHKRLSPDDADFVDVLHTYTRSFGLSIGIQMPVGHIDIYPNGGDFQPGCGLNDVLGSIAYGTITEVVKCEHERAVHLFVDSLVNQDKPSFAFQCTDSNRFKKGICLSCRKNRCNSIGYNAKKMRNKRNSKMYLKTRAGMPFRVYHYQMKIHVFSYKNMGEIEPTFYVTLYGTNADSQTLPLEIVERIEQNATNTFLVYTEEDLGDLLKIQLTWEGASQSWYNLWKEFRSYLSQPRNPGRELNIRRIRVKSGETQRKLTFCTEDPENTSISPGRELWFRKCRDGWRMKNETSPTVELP
Chain of hepatic lipase (HL) (P11150 23-499, species assumed): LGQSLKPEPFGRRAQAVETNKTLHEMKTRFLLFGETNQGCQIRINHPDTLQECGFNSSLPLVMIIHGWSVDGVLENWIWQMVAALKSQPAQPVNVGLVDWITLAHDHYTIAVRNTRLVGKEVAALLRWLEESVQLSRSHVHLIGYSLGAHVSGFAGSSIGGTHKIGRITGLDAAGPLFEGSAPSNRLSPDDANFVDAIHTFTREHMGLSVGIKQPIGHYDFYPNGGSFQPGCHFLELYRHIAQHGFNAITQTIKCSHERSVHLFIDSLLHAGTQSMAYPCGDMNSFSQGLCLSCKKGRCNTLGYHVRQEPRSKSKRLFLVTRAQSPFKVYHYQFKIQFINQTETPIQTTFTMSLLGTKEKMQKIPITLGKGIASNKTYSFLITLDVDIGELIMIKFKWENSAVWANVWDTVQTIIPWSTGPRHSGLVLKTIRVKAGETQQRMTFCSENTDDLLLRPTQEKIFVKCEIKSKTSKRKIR

With `CN(C)C(=O)c1cccc(-c2ccc3nc(C(C(=O)NCCS(N)(=O)=O)S(=O)(=O)CCC(F)(F)F)sc3c2)c1` (stereo not shown) [Example B340, N,N-dimethyl-3-(2-{[(2-sulfamoylethyl)carba-moyl](3,3,3-trifluoropro-panesulfonyl)methyl}-1,3-benzothiazol-6-yl)benzamide], the IC50 turned out to be 14.6 nM on Endothelial lipase (EL) and 79.5 nM at hepatic lipase (HL).

As to `CC1(O)CCN(C(=O)c2cccc(-c3ccc4nc(C(C(=O)NCCS(N)(=O)=O)S(=O)(=O)CCC(F)(F)F)sc4c3)c2)CC1` (stereo not shown) [Example B341, 2-{6-[3-(4-hydroxy-4-methylpiperidine-1-carbonyl)phenyl]-1,3-benzothiazol-2-yl}-N-(2-sulfamoylethyl)-2-(3,3,3-trifluoropropanesulfon-yl)acetamide], the IC50 at Endothelial lipase (EL) was 6 nM; against hepatic lipase (HL), 112 nM.

`NS(=O)(=O)CCNC(=O)C(c1nc2ccc(-c3cccc(C(=O)N4CC[C@@H](O)C4)c3)cc2s1)S(=O)(=O)CCC(F)(F)F` (stereo partly drawn) [Example B342, 2-(6-{3-[(3R)-3-hydroxy-pyrrolidine-1-carbon-yl]phenyl}-1,3-benzothiazol-2-yl)-N-(2-sulfamoyl-ethyl)-2-(3,3,3-trifluoro-propanesulfonyl)acetamide]: the half-maximal inhibitory concentration (IC50) against Endothelial lipase (EL) is 9.5 nM; against hepatic lipase (HL), 154 nM.

`NS(=O)(=O)CCNC(=O)C(c1nc2ccc(-c3cccc(C(=O)N4CCC(F)(F)CC4)c3)cc2s1)S(=O)(=O)CCC(F)(F)F` (stereo not shown) [Example B343, 2-{6-[3-(4,4-difluoro-piperidine-1-carbon-yl)phenyl]-1,3-benzothiazol-2-yl}-N-(2-sulfamoyl-ethyl)-2-(3,3,3-trifluoro-propanesulfonyl)acetamide]: the half-inhibitory concentration (IC50) on Endothelial lipase (EL) was 13.5 nM; on hepatic lipase (HL), 38.1 nM.

`NS(=O)(=O)CCNC(=O)C(c1nc2ccc(-c3cccc(C(=O)N4CC[C@H](O)C4)c3)cc2s1)S(=O)(=O)CCC(F)(F)F` (stereo partly shown) [Example B344]: the IC50 on Endothelial lipase (EL) amounted to 13.1 nM; against hepatic lipase (HL) it was 22.2 nM.

Turning to `CC(C)(O)CNC(=O)c1cccc(-c2ccc3nc(C(C(=O)NCCS(N)(=O)=O)S(=O)(=O)CCC(F)(F)F)sc3c2)c1` (stereo not shown) [Example B345, N-(2-hydroxy-2-methyl-propyl)-3-(2-{[(2-sulfamoylethyl)carba-moyl](3,3,3-tnfluoropro-panesulfonyl)methyl}-1,3-benzothiazol-6-yl)benzamide], the results for the IC50 at Endothelial lipase (EL) and on hepatic lipase (HL) were 1 nM and 213 nM, respectively.

As for `Cc1cc2nc(C(C(=O)NCCS(N)(=O)=O)S(=O)(=O)Cc3ccccc3)sc2cc1-c1ccc(C(=O)N2CCOCC2)cc1` (stereo not shown) [Example B346, 2-{5-methyl-6-[4-(morpholine-4-carbon-yl)phenyl]-1,3-benzothiazol-2-yl}-2-phenylmethane-sulfonyl-N-(2-sulfamoylethyl)acetamide], the values for the IC50 against Endothelial lipase (EL) and at hepatic lipase (HL) were 5.3 nM and 400 nM, respectively.

Regarding `Cc1cc2nc(C(C(=O)NCCS(N)(=O)=O)S(=O)(=O)Cc3ccccc3)sc2cc1-c1ccc(C(=O)N2CC(C)(O)C2)cc1` (stereo not shown) [Example B347, 2-{6-[4-(3-hydroxy-3-methylazetidine-1-carbonyl)phenyl]-5-methyl-1,3-benzothiazol-2-yl}-2-phenylmethane-sulfonyl-N-(2-sulfamoylethyl)acetamide], the figures for the IC50 against Endothelial lipase (EL) and at hepatic lipase (HL) were 3.4 nM and 580 nM, respectively.

Turning to `Cc1cc2nc(C(C(=O)NCCS(N)(=O)=O)S(=O)(=O)Cc3ccccc3)sc2cc1-c1ccc(C(=O)N2CCCCC2)cc1` (stereo not shown) [Example B348, 2-{5-methyl-6-[4-(piperidine-1-carbonyl)phen-yl]-1,3-benzothiazol-2-yl}-2-phenylmethane-sulfonyl-N-(2-sulfamoylethyl)acetamide], the figures for the IC50 at Endothelial lipase (EL) and against hepatic lipase (HL) were 1 nM and 37.1 nM, respectively.

For `Cc1cc2nc(C(C(=O)NCCS(N)(=O)=O)S(C)(=O)=O)sc2cc1-c1ccc(C(=O)N2CC(C)(O)C2)cc1` (stereo not shown) [Example B349, 2-{6-[4-(3-hydroxy-3-methylazetidine-1-carbonyl)phenyl]-5-methyl-1,3-benzothiazol-2-yl}-2-methanesulfonyl-N-(2-sulfamoylethyl)a-cetamide], the IC50 against Endothelial lipase (EL) turned out to be 2.3 nM; against hepatic lipase (HL) it was 347 nM.

With `Cc1cc2nc(C(C(=O)NCCS(N)(=O)=O)S(C)(=O)=O)sc2cc1-c1ccc(C(=O)N2CCOCC2)cc1` (stereo not shown) [Example B350, 2-methanesulfonyl-2-{5-methyl-6-[4-(morpholine-4-carbonyl)phenyl]-1,3-benzothiazol-2-yl}-N-(2-sulfamoylethyl)acetamide], the IC50 at Endothelial lipase (EL) amounted to 3.2 nM; on hepatic lipase (HL), 90.5 nM.

With `NS(=O)(=O)CCNC(=O)C(c1nc2ccc(-c3ccc(C(=O)N4CCCCC4)cc3)cc2s1)S(=O)(=O)Cc1ccccc1` (stereo not shown) [Example B351, 2-phenylmethanesulfonyl-2-{6-[4-(piperidine-1-carbonyl)phenyl]-1,3-benzothiazol-2-yl}-N-(2-sulfamoylethyl)acetamide], the IC50 at Endothelial lipase (EL) stood at 6.2 nM; on hepatic lipase (HL) it was 14.9 nM.

For `CS(=O)(=O)C(C(=O)NCCS(N)(=O)=O)c1nc2cc(-c3ccccc3F)ccc2s1` (stereo not shown) [Example B352, 2-[5-(2-fluorophenyl)-1,3-benzothiazol-2-yl]-2-methanesulfonyl-N-(2-sulfamoylethyl)acetamide], the half-inhibitory concentration (IC50) came to 0.8 nM against Endothelial lipase (EL) and 13.7 nM against hepatic lipase (HL).

For `CC1(O)CN(C(=O)c2ccc(-c3ccc4nc(C(C(=O)NCCS(N)(=O)=O)S(=O)(=O)Cc5ccc(F)cc5)sc4c3)cc2)C1` (stereo not shown) [Example B353, 2-[(4-fluorophenyl)meth-anesulfonyl]-2-{6-[4-(3-hydroxy-3-methylazetidine-1-carbonyl)phcnyl]-1,3-benzothiazol-2-yl}-N-(2-sulfamoylethyl)acetamide], the IC50 came out at 2 nM against Endothelial lipase (EL) and 18.5 nM against hepatic lipase (HL).

Regarding `CO[C@@H]1CCN(C(=O)c2ccc(-c3ccc4nc(C(C(=O)NCCS(N)(=O)=O)S(=O)(=O)Cc5ccc(OC(F)(F)F)cc5)sc4c3)cc2)C1` (stereo partly drawn) [Example B354, 2-(6-{4-[(3R)-3-methoxy-pyrrolidine-1-carbonyl]phen-yl}-1,3-benzothiazol-2-yl)-N-(2-sulfamoyl-ethyl)-2-{[4-(trifluoro-methoxy)phenyl]methane-sulfonyl}acetamide], the IC50 came out at 3.8 nM against Endothelial lipase (EL) and 553 nM at hepatic lipase (HL).

Regarding `NS(=O)(=O)CCNC(=O)C(c1nc2ccc(-c3ccc(C(=O)N4CC(F)C4)cc3)cc2s1)S(=O)(=O)Cc1ccc(OC(F)(F)F)cc1` (stereo not shown) [Example B355, 2-{6-[4-(3-fluoroazetidine-1-carbonyl)phenyl]-1,3-benzothiazol-2-yl}-N-(2-sulfamoylethyl)-2-{[4-(trifluoromethoxy)phen-yl]methanesulfonyl}a-cetamide], the results for the IC50 at Endothelial lipase (EL) and against hepatic lipase (HL) were 6.6 nM and 235 nM, respectively.

For `CO[C@H]1CCN(C(=O)c2ccc(-c3ccc4nc(C(C(=O)NCCS(N)(=O)=O)S(=O)(=O)Cc5ccc(OC(F)(F)F)cc5)sc4c3)cc2)C1` (stereo partly drawn) [Example B356, 2-(6-{4-[(3S)-3-methoxy-pyrrolidine-1-carbonyl]phen-yl}-1,3-benzothiazol-2-yl)-N-(2-sulfamoyl-ethyl)-2-{[4-(trifluoro-methoxy)phenyl]methane-sulfonyl}acetamide], the half-inhibitory concentration (IC50) was determined as 2.7 nM against Endothelial lipase (EL) and 26.7 nM at hepatic lipase (HL).

Consider `NS(=O)(=O)CCNC(=O)C(c1nc2ccc(-c3ccc(C(=O)N4CC(F)(F)C4)cc3)cc2s1)S(=O)(=O)Cc1ccc(C(F)(F)F)cc1` (stereo not shown) [Example B357, 2-{6-[4-(3,3-difluoro-azetidine-1-carbonyl)phen-yl]-1,3-benzothiazol-2-yl}-N-(2-sulfamoyl-ethyl)-2-{[4-(trifluoromethyl)phen-yl]methanesulfonyl}a-cetamide], for which the values for the IC50 on Endothelial lipase (EL) and on hepatic lipase (HL) were 15 nM and 93.2 nM, respectively.

`NS(=O)(=O)CCNC(=O)C(c1nc2ccc(-c3ccc4c(c3)CNC4=O)cc2s1)S(=O)(=O)Cc1ccc(C(F)(F)F)cc1` (stereo not shown) [Example B358, 2-[6-(1-oxo-2,3-dihydro-1H-isoindol-5-yl)-1,3-benzothiazol-2-yl]-N-(2-sulfamoylethyl)-2-{[4-(trifluoromethyl)phen-yl]methanesulfonyl}a-cetamide]: the half-maximal inhibitory concentration (IC50) at Endothelial lipase (EL) came out at 3.7 nM; at hepatic lipase (HL) it was 67.6 nM.

Consider `NS(=O)(=O)CCNC(=O)C(c1nc2ccc(-c3ccc(C(=O)N4CC(F)(F)C4)cc3)cc2s1)S(=O)(=O)Cc1cccc(C(F)(F)F)c1` (stereo not shown) [Example B359, 2-{6-[4-(3,3-difluoro-azetidine-1-carbonyl)phen-yl]-1,3-benzothiazol-2-yl}-N-(2-sulfamoyl-ethyl)-2-{[3-(trifluoromethyl)phen-yl]methanesulfonyl}a-cetamide], for which the half-maximal inhibitory concentration (IC50) on Endothelial lipase (EL) was found to be 4.7 nM; on hepatic lipase (HL), 47 nM.

`CC1(O)CN(C(=O)c2ccc(-c3ccc4nc(C(C(=O)NCCS(N)(=O)=O)S(=O)(=O)Cc5cccc(C(F)(F)F)c5)sc4c3)cc2)C1` (stereo not shown) [Example B360, 2-{6-[4-(3-hydroxy-3-methylazetidine-1-carbonyl)phenyl]-1,3-benzothiazol-2-yl}-N-(2-sulfamoylethyl)-2-{[3-(trifluoromethyl)phen-yl]methanesulfonyl}a-cetamide]: the IC50 on Endothelial lipase (EL) stood at 6.2 nM; against hepatic lipase (HL) it was 471 nM.

In the case of `Cn1cc(-c2ccc3nc(C(C(=O)NCCS(N)(=O)=O)S(=O)(=O)Cc4ccc(C(F)(F)F)cc4)sc3c2)ccc1=O` (stereo not shown) [Example B361], the IC50 was 121 nM against Endothelial lipase (EL) and 1230 nM on hepatic lipase (HL).

Take `CC1(O)CN(C(=O)c2ccc(-c3ccc4nc(C(C(N)=O)S(=O)(=O)Cc5ccc(OC(F)(F)F)cc5)sc4c3)cc2)C1` (stereo not shown) [Example B362, 2-{6-[4-(3-hydroxy-3-methylazetidine-1-carbonyl)phenyl]-1,3-benzothiazol-2-yl}-2-{[4-(trifluoromethoxy)phen-yl]methanesulfonyl}a-cetamide]: the figures for the IC50 on Endothelial lipase (EL) and at hepatic lipase (HL) were 158 nM and 30.3 nM, respectively.

Source of the values: patent US8987314B2, “Amide, urea or sulfone amide linked benzothiazole inhibitors of endothelial lipase” (Bristol-Myers Squibb Company, priority 2012, dated 2015).
